# In patent publication US20230151049A1, “Compounds Useful in HIV Therapy” (priority 2020, published 2023):
# Where two headings read alike, the source gives them in different places.
# Test: in vivo
# Settings: for concentration at 1 day / concentration at 7 day / concentration at 14 day / concentration at 21 day / concentration at 28 day / concentration at 35 day / concentration at 42 day / concentration at 49 day / concentration at 56 day / concentration at 63 day / concentration at 70 day / concentration at 77 day / concentration at 84 day: male, Wistar Han, rat
# Outline: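 Three male Wistar Han rats (200-250 g), not fasted, received a single intramuscular gastrocnemius injection of prodrug suspension at 20 mg/kg EFdA equivalent. Tail-vein blood was taken into NaF/Na2EDTA, mixed 1:1 with 100 mM ammonium acetate pH 4, frozen, and analysed by LC-MS/MS.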
# [1] = day 77, single IM Example 2A 56 mg/kg
# [2] = day 84, single IM Example 2A 56 mg/kg
# [3] = day 14, single IM Example 9B 20 mg/kg equivalent of EFdA
# [4] = day 21, single IM Example 9B 20 mg/kg equivalent of EFdA
# [5] = day 28, single IM Example 9B 20 mg/kg equivalent of EFdA
structure (smiles),measurement,setting,value
"C#C[C@]1(COP(=O)(N[C@@H](C)C(=O)OC(CCCCCCCCCC)CCCCCCCCCC)Oc2ccccc2)O[C@@H](n2cnc3c(N)nc(F)nc32)C[C@@H]1O (single isomer, unassigned) [Example 37A]",Mean concentration of EFdA,"day 21, single IM Example 37A 56 mg/kg","BQL (BQL = below quantification limit, 0.3 ng/ml for both)"
same,Mean concentration of EFdA,"day 28, single IM Example 37A 56 mg/kg","BQL (BQL = below quantification limit, 0.3 ng/ml for both)"
same,Mean concentration of EFdA,"day 35, single IM Example 37A 56 mg/kg","BQL (BQL = below quantification limit, 0.3 ng/ml for both)"
same,Mean concentration of EFdA,"day 42, single IM Example 37A 56 mg/kg","BQL (BQL = below quantification limit, 0.3 ng/ml for both)"
same,Mean concentration of EFdA,"day 49, single IM Example 37A 56 mg/kg","BQL (BQL = below quantification limit, 0.3 ng/ml for both)"
same,Mean concentration of EFdA,"day 56, single IM Example 37A 56 mg/kg","BQL (BQL = below quantification limit, 0.3 ng/ml for both)"
same,Mean concentration of EFdA,"day 63, single IM Example 37A 56 mg/kg","BQL (BQL = below quantification limit, 0.3 ng/ml for both)"
same,Mean concentration of EFdA,"day 70, single IM Example 37A 56 mg/kg","BQL (BQL = below quantification limit, 0.3 ng/ml for both)"
same,Mean concentration of EFdA,"day 77, single IM Example 37A 56 mg/kg","BQL (BQL = below quantification limit, 0.3 ng/ml for both)"
same,Mean concentration of EFdA,"day 84, single IM Example 37A 56 mg/kg","BQL (BQL = below quantification limit, 0.3 ng/ml for both)"
same,concentration at 1 day,"in vivo, day 1, single IM Example 37A 56 mg/kg, read-out: Mean concentration of Example 37A",17.9 ng/mL
same,concentration at 7 day,"in vivo, day 7, single IM Example 37A 56 mg/kg, read-out: Mean concentration of Example 37A",3.58 ng/mL
same,concentration at 14 day,"in vivo, day 14, single IM Example 37A 56 mg/kg, read-out: Mean concentration of Example 37A",3.8 ng/mL
same,concentration at 21 day,"in vivo, day 21, single IM Example 37A 56 mg/kg, read-out: Mean concentration of Example 37A",5.16 ng/mL
same,concentration at 28 day,"in vivo, day 28, single IM Example 37A 56 mg/kg, read-out: Mean concentration of Example 37A",4.16 ng/mL
same,concentration at 35 day,"in vivo, day 35, single IM Example 37A 56 mg/kg, read-out: Mean concentration of Example 37A",4.95 ng/mL
same,concentration at 42 day,"in vivo, day 42, single IM Example 37A 56 mg/kg, read-out: Mean concentration of Example 37A",5.29 ng/mL
same,concentration at 49 day,"in vivo, day 49, single IM Example 37A 56 mg/kg, read-out: Mean concentration of Example 37A",4.89 ng/mL
same,concentration at 56 day,"in vivo, day 56, single IM Example 37A 56 mg/kg, read-out: Mean concentration of Example 37A",4.94 ng/mL
same,concentration at 63 day,"in vivo, day 63, single IM Example 37A 56 mg/kg, read-out: Mean concentration of Example 37A",4.46 ng/mL
same,concentration at 70 day,"in vivo, day 70, single IM Example 37A 56 mg/kg, read-out: Mean concentration of Example 37A",3.78 ng/mL
same,concentration at 77 day,"in vivo, day 77, single IM Example 37A 56 mg/kg, read-out: Mean concentration of Example 37A",3.46 ng/mL
same,concentration at 84 day,"in vivo, day 84, single IM Example 37A 56 mg/kg, read-out: Mean concentration of Example 37A",3.32 ng/mL
"C#C[C@]1(COP(=O)(N[C@@H](Cc2ccccc2)C(=O)OCCCCCCCCCCCCCCCC)Oc2ccccc2)O[C@@H](n2cnc3c(N)nc(F)nc32)C[C@@H]1O (single isomer, unassigned) [Example 2A]",Mean concentration of Example 2A,"day 42, single IM Example 2A 56 mg/kg",BQL
same,Mean concentration of Example 2A,"day 49, single IM Example 2A 56 mg/kg",BQL
same,Mean concentration of Example 2A,"day 70, single IM Example 2A 56 mg/kg",BQL
same,Mean concentration of EFdA,[1],"BQL (BQL = below quantification limit, o.5 ng/mL for Example 2A and 0.1-0.3 ng/mL for EFdA)"
same,Mean concentration of Example 2A,[1],BQL
same,Mean concentration of EFdA,[2],"BQL (BQL = below quantification limit, o.5 ng/mL for Example 2A and 0.1-0.3 ng/mL for EFdA)"
same,Mean concentration of Example 2A,[2],BQL
same,concentration at 1 day,"in vivo, day 1, single IM Example 2A 56 mg/kg, read-out: Mean concentration of Example 2A",3.54 ng/mL
same,concentration at 7 day,"in vivo, day 7, single IM Example 2A 56 mg/kg, read-out: Mean concentration of Example 2A",1.35 ng/mL
same,concentration at 14 day,"in vivo, day 14, single IM Example 2A 56 mg/kg, read-out: Mean concentration of Example 2A",3.35 ng/mL
same,concentration at 21 day,"in vivo, day 21, single IM Example 2A 56 mg/kg, read-out: Mean concentration of Example 2A",2.42 ng/mL
same,concentration at 28 day,"in vivo, day 28, single IM Example 2A 56 mg/kg, read-out: Mean concentration of Example 2A",4.08 ng/mL
same,concentration at 35 day,"in vivo, day 35, single IM Example 2A 56 mg/kg, read-out: Mean concentration of Example 2A",4.53 ng/mL
same,concentration at 56 day,"in vivo, day 56, single IM Example 2A 56 mg/kg, read-out: Mean concentration of Example 2A",1.14 ng/mL
same,concentration at 63 day,"in vivo, day 63, single IM Example 2A 56 mg/kg, read-out: Mean concentration of Example 2A",1.05 ng/mL
"C#C[C@]1(COP(=O)(N[C@@H](Cc2ccccc2)C(=O)OCCCCCCCCCC)OCC(=O)OCCCCCCCCCC)O[C@@H](n2cnc3c(N)nc(F)nc32)C[C@@H]1O (single isomer, unassigned) [Example 9B]",Mean concentration of EFdA,[3],"BQL (BQL = below quantification limit, 0.2-0.3 ng/mL for Example 9B and 0.2 ng/mL for EFdA)"
same,Mean concentration of Example 9B,[3],"BQL (BQL = below quantification limit, 0.2-0.3 ng/mL for Example 9B and 0.2 ng/mL for EFdA)"
same,Mean concentration of EFdA,[4],"BQL (BQL = below quantification limit, 0.2-0.3 ng/mL for Example 9B and 0.2 ng/mL for EFdA)"
same,Mean concentration of Example 9B,[4],"BQL (BQL = below quantification limit, 0.2-0.3 ng/mL for Example 9B and 0.2 ng/mL for EFdA)"
same,Mean concentration of EFdA,[5],"BQL (BQL = below quantification limit, 0.2-0.3 ng/mL for Example 9B and 0.2 ng/mL for EFdA)"
same,Mean concentration of Example 9B,[5],"BQL (BQL = below quantification limit, 0.2-0.3 ng/mL for Example 9B and 0.2 ng/mL for EFdA)"
same,concentration at 1 day,"whole blood, intramuscular, day 1, single IM Example 9B 20 mg/kg equivalent of EFdA, read-out: Mean concentration of Example 9B",3.01 ng/mL
same,concentration at 7 day,"whole blood, intramuscular, day 7, single IM Example 9B 20 mg/kg equivalent of EFdA, read-out: Mean concentration of Example 9B",0.663 ng/mL
"C#C[C@]1(COP(=O)(N[C@@H](Cc2ccccc2)C(=O)OCCCCCCCCCCCCCCCCCCCCCC)Oc2ccccc2)O[C@@H](n2cnc3c(N)nc(F)nc32)C[C@@H]1O (single isomer, unassigned) [Example 1B]",Mean concentration of EFdA,"day 1, single IM Example 1B 62 mg/kg",BQL (BQL = below quantification limit; 0.3 ng/mL for both)
same,Mean concentration of EFdA,"day 7, single IM Example 1B 62 mg/kg",BQL (BQL = below quantification limit; 0.3 ng/mL for both)
same,Mean concentration of EFdA,"day 14, single IM Example 1B 62 mg/kg",BQL (BQL = below quantification limit; 0.3 ng/mL for both)
same,Mean concentration of EFdA,"day 21, single IM Example 1B 62 mg/kg",BQL (BQL = below quantification limit; 0.3 ng/mL for both)
same,Mean concentration of EFdA,"day 28, single IM Example 1B 62 mg/kg",BQL (BQL = below quantification limit; 0.3 ng/mL for both)
same,Mean concentration of EFdA,"day 35, single IM Example 1B 62 mg/kg",BQL (BQL = below quantification limit; 0.3 ng/mL for both)
same,Mean concentration of EFdA,"day 42, single IM Example 1B 62 mg/kg",BQL (BQL = below quantification limit; 0.3 ng/mL for both)
same,Mean concentration of EFdA,"day 49, single IM Example 1B 62 mg/kg",BQL (BQL = below quantification limit; 0.3 ng/mL for both)
same,Mean concentration of EFdA,"day 56, single IM Example 1B 62 mg/kg",BQL (BQL = below quantification limit; 0.3 ng/mL for both)
same,Mean concentration of EFdA,"day 63, single IM Example 1B 62 mg/kg",BQL (BQL = below quantification limit; 0.3 ng/mL for both)
same,Mean concentration of EFdA,"day 70, single IM Example 1B 62 mg/kg",BQL (BQL = below quantification limit; 0.3 ng/mL for both)
same,Mean concentration of EFdA,"day 77, single IM Example 1B 62 mg/kg",BQL (BQL = below quantification limit; 0.3 ng/mL for both)
same,Mean concentration of EFdA,"day 84, single IM Example 1B 62 mg/kg",BQL (BQL = below quantification limit; 0.3 ng/mL for both)
same,concentration at 1 day,"in vivo, day 1, single IM Example 1B 62 mg/kg, read-out: Mean concentration of Example 1B",70.5 ng/mL
same,concentration at 7 day,"in vivo, day 7, single IM Example 1B 62 mg/kg, read-out: Mean concentration of Example 1B",8.75 ng/mL
same,concentration at 14 day,"in vivo, day 14, single IM Example 1B 62 mg/kg, read-out: Mean concentration of Example 1B",6.78 ng/mL
same,concentration at 21 day,"in vivo, day 21, single IM Example 1B 62 mg/kg, read-out: Mean concentration of Example 1B",3.53 ng/mL
same,concentration at 28 day,"in vivo, day 28, single IM Example 1B 62 mg/kg, read-out: Mean concentration of Example 1B",4.36 ng/mL
same,concentration at 35 day,"in vivo, day 35, single IM Example 1B 62 mg/kg, read-out: Mean concentration of Example 1B",1.72 ng/mL
same,concentration at 42 day,"in vivo, day 42, single IM Example 1B 62 mg/kg, read-out: Mean concentration of Example 1B",1.92 ng/mL
same,concentration at 49 day,"in vivo, day 49, single IM Example 1B 62 mg/kg, read-out: Mean concentration of Example 1B",0.912 ng/mL
same,concentration at 56 day,"in vivo, day 56, single IM Example 1B 62 mg/kg, read-out: Mean concentration of Example 1B",1.33 ng/mL
same,concentration at 63 day,"in vivo, day 63, single IM Example 1B 62 mg/kg, read-out: Mean concentration of Example 1B",0.748 ng/mL
same,concentration at 70 day,"in vivo, day 70, single IM Example 1B 62 mg/kg, read-out: Mean concentration of Example 1B",0.767 ng/mL
same,concentration at 77 day,"in vivo, day 77, single IM Example 1B 62 mg/kg, read-out: Mean concentration of Example 1B",1.55 ng/mL
same,concentration at 84 day,"in vivo, day 84, single IM Example 1B 62 mg/kg, read-out: Mean concentration of Example 1B",2.48 ng/mL
